Test results: article PMC11750672, “The in vivo metabolic pathway of Deg-AZM and in vitro investigations into the contribution of drug metabolizing enzymes and drug transporters in the drug interactions of Deg-AZM, a clinical-stage new transgelin agonist” (Frontiers in Pharmacology, 2025)

Key:
Experiment in all cases: CYP inhibition in HLMs
Assay type in all cases: in vitro ADME
CYP1A2 = target: T1, CYP1A2 (Homo sapiens, UniProt P05177); conditions: HLM 0.5 mg/mL, probe phenacetin, 20 min
T1 construct: from tissue; host or cells: human liver microsomes
T1 sequence (P05177 1-516): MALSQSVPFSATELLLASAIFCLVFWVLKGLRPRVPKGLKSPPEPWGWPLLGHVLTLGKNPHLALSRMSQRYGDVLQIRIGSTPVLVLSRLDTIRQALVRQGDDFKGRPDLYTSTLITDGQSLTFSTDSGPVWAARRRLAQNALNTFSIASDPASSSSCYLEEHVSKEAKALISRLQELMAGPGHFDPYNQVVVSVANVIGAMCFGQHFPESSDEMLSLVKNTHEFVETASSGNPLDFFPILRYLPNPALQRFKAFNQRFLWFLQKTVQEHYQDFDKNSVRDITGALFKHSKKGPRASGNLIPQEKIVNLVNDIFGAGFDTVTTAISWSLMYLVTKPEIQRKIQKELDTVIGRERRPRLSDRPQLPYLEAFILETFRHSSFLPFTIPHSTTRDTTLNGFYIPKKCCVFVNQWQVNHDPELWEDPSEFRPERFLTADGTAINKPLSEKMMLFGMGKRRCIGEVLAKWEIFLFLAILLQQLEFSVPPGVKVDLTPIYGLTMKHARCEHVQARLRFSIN
Procedure: (§1) CYP inhibition potential of Deg-AZM was assessed in NADPH-fortified HLMs (0.5 mg/mL for CYP1A2, CYP2B6, CYP2C19 and CYP2D6 system, 0.035 mg/mL for CYP2C9 system, 0.05 mg/mL for CYP3A4 system, and 0.025 mg/mL for CYP2C8 system) using CYP probe substrates (same as the positive controls in HLM phenotyping assays). Deg-AZM in triplicates (0, 0.2, 0.6, 2.0, 6.0, 20, and 60 μM) was treated with each probe of CYP1A2 (20 min), CYP2B6 (20 min), CYP2C8 (10 min), CYP2C9 (60 min), CYP2C19 (45 min), CYP2D6 (30 min) and CYP3A4 (15 min). Probe substrate metabolites were analyzed by LC-MS/MS and the peak area ratios of analytes to internal standard (Indapamide) were calculated. The activity of the CYP450 enzyme subtype is directly proportional to the concentration of the corresponding probe substrate metabolites. The average of the measured values of each group was calculated, the control tube value was set as 100%, the residual probe substrate metabolites was calculated in the presence of positive inhibitors and Deg-AZM at series concentration. IC50 values were calculated by the dose-response model (nonlinear regression) in GraphPad Prism software.

CYP2B6 = target: T2, CYP2B6 (Homo sapiens, UniProt P20813); conditions: HLM 0.5 mg/mL, probe bupropion, 20 min
T2 construct: from tissue; host or cells: human liver microsomes
T2 sequence (P20813 1-491): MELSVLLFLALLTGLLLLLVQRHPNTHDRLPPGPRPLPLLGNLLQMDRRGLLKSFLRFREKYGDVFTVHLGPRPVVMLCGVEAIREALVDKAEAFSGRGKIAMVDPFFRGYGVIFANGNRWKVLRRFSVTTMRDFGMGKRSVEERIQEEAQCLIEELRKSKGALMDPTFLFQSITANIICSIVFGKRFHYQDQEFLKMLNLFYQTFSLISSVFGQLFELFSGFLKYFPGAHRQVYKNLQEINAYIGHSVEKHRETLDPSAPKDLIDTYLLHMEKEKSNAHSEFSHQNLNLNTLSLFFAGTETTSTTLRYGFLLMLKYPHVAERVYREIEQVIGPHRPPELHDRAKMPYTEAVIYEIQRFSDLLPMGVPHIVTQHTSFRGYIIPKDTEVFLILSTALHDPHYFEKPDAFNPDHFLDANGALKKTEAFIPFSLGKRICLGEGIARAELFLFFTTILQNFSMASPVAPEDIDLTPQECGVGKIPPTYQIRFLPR
Procedure: as §1

CYP2C19 = target: T3, CYP2C19 (Homo sapiens, UniProt P33261); conditions: HLM 0.5 mg/mL, probe S-mephenytoin, 45 min
T3 construct: from tissue; host or cells: human liver microsomes
T3 sequence (P33261 whole entry): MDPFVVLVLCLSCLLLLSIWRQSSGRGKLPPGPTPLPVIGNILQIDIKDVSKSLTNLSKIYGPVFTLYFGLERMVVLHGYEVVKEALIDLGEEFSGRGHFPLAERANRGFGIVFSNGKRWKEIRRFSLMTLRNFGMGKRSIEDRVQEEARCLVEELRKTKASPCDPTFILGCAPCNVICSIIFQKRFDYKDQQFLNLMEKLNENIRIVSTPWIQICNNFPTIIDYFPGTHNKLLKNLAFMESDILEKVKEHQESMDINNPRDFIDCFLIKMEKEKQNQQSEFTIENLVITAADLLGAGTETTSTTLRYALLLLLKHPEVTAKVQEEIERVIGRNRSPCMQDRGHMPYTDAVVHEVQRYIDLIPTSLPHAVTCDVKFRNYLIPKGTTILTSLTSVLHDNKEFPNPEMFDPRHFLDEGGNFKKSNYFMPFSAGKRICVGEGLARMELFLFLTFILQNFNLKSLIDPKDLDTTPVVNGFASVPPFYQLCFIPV
Procedure: as §1

CYP2C8 = target: T4, CYP2C8 (Homo sapiens, UniProt P10632); conditions: HLM 0.025 mg/mL, probe amodiaquine, 10 min
T4 construct: from tissue; host or cells: human liver microsomes
T4 sequence (P10632 1-490): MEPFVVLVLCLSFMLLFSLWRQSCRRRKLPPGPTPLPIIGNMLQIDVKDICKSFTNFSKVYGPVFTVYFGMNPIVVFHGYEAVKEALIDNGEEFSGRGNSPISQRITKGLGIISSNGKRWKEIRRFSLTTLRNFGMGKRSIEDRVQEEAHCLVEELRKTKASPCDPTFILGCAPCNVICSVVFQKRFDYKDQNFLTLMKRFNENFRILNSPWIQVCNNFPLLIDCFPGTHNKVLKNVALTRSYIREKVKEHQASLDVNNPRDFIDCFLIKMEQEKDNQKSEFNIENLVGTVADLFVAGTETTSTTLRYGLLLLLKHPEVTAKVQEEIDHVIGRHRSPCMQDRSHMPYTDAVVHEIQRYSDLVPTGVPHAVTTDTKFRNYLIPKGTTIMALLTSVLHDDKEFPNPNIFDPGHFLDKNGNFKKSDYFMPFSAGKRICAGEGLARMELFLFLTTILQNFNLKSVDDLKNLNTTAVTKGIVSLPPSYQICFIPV
Procedure: as §1

CYP2C9 = target: T5, CYP2C9 (Homo sapiens, UniProt P11712); conditions: HLM 0.035 mg/mL, probe diclofenac, 60 min
T5 construct: from tissue; host or cells: human liver microsomes
T5 sequence (P11712 whole entry): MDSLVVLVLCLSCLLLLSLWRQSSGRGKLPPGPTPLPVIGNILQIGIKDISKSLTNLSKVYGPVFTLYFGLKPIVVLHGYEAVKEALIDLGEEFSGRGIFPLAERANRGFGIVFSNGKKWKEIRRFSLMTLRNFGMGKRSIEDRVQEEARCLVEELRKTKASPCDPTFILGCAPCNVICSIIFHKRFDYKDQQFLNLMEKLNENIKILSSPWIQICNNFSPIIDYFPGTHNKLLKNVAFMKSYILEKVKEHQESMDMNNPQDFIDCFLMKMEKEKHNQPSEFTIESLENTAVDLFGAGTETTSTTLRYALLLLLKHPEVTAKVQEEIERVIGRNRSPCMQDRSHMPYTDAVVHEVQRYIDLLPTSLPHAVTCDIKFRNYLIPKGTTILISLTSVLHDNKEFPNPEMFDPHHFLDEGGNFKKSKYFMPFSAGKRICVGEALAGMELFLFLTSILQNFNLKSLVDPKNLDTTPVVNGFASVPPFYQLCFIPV
Procedure: as §1

CYP2D6 = target: T6, CYP2D6 (Homo sapiens, UniProt P10635); conditions: HLM 0.5 mg/mL, probe bufuralol, 30 min
T6 construct: from tissue; host or cells: human liver microsomes
T6 sequence (P10635 whole entry): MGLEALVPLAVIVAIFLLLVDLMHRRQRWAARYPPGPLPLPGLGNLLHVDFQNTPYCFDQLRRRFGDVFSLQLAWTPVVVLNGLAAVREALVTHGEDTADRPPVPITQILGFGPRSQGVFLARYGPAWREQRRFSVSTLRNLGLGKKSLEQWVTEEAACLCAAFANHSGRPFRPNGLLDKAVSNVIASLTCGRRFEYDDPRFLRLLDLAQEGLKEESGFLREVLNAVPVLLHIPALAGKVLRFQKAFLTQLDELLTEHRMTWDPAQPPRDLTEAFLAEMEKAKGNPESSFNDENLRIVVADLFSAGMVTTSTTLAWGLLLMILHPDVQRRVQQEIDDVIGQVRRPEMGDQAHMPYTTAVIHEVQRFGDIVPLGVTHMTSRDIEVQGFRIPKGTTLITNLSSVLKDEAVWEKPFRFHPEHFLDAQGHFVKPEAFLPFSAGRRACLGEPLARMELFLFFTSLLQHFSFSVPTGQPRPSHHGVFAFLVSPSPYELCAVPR
Procedure: as §1

CYP3A4 = target: T7, CYP3A4 (Homo sapiens, UniProt P08684); conditions: HLM 0.05 mg/mL, probe midazolam, 15 min
T7 construct: from tissue; host or cells: human liver microsomes
T7 sequence (P08684 whole entry): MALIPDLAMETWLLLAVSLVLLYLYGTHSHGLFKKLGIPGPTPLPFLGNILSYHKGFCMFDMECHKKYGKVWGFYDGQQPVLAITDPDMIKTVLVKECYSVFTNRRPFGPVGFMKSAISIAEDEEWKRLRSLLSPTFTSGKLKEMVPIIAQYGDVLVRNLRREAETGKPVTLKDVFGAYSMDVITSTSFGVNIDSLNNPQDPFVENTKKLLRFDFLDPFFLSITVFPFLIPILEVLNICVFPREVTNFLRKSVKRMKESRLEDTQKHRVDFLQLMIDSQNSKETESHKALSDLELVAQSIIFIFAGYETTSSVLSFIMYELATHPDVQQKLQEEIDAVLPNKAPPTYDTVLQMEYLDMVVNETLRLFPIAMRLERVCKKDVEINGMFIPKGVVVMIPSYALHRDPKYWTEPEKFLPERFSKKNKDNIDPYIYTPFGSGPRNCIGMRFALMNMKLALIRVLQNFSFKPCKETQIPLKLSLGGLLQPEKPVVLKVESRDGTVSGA
Procedure: as §1

CCC1OC(=O)C(C)C(O)C(C)C(O)C(C)(O)CC(C)CN(C)C(C)C(O)C1(C)O (stereo not shown) [Deg-AZM, Deglycosylated azithromycin]
IC50 (CYP1A2): > 60 µM | IC50 (CYP2B6): 8.97 µM | IC50 (CYP2C19): > 60 µM | IC50 (CYP2C8): > 60 µM | IC50 (CYP2C9): > 60 µM | IC50 (CYP2D6): 7.89 µM | IC50 (CYP3A4): > 60 µM
